Laboratory results as given in US20260263550A1, “METHODS AND COMPOSITIONS FOR TREATING, PREVENTING, INHIBITING, AMELIORATING OR DELAYING THE ONSET OF OPHTHALMIC CONDITIONS” (Stealth BioTherapeutics Inc., priority 2021, published 2026).

Tests used:
[1] = Uptake in plasma and compartments of the eye in a rabbit model (subcutaneous or topical ocular dosing); type: in vivo, Dutch Belted Rabbits
Description: 3 mg/mL elamipretide or compound of Formula IIa in saline was dosed subcutaneously at 1.5 mg/kg. A 3 mg/mL elamipretide or compound of Formula IIa formulation was prepared by dissolving 81 mg elamipretide in a total volume of 27 mL of sterile saline and mixing well. • (ii) Groups 2 & 4: Topical Ocular Formulation for administration of elamipretide or compound of Formula IIa
For each preparation (i.e., elamipretide or compound of Formula IIa, sodium chloride (105 mg) was dissolved in 16 mL of water for injection with mixing. With mixing, 82.8 mg of sodium phosphate monobasic, monohydrate was then added. With mixing, 0.400 mL of a 5 mg/mL benzalkonium chloride solution in water (to be prepared by diluting 0.100 mL of a 50% benzalkonium chloride solution in water to 10 mL with water for injection) was then added. Two hundred (200) mg of elamipretide or compound of Formula IIa was then added with mixing and the formulation pH was adjusted to 5.8 (+/−0.1) with 1 M sodium hydroxide in water solution. The final volume of the formulation was then be brought to 20 mL using water for injection. Each formulation (elamipretide or compound of Formula IIa) was used for topical ocular administration at a dose of 50 μL/eye OU.
A total of 48 male Dutch Belted Rabbits were used in the study. Each animal was approximately 2 kg.
For subcutaneous administration, rabbits were dosed via a single subcutaneous injection of 1.5 mg/kg and at the scruff of the neck between the shoulder blades using a syringe with an attached 27G×½ inch needle (or similar). The site of injection was checked to ensure no leakage of dose immediately following administration.
For topical administration, a calibrated Gilson positive displacement pipette was used to administer 50 μL of formulation onto the globe the eye while the lower eyelid was pulled away from the globe. Administration was twice daily (i.e., BID). Doses were administered to both eyes, every 8 to 12 hours for 11 total doses.
Terminal blood samples (approximately 6 mL) were collected from two animals/group/timepoint via the central ear artery at approximately 0.5, 1, 2, 4, 8, and 24 hours postdose. Blood samples were collected into tubes containing K2EDTA as the anticoagulant and inverted several times to ensure adequate mixing of blood and anticoagulant and placed on ice. Within 30 min of collection, samples were centrifuged to harvest plasma and stored at −80° C. until analyzed.
Following blood collection, designated animals were euthanized by barbiturate overdose. Following euthanasia, both eyes of each rabbit were harvested and dissected for collection of ocular tissue and fluid. Optic nerve and retina were collected from Group 1 and 3 animals, and aqueous humor, retina, conjunctiva, cornea, sclera, and optic nerve were collected from Group 2 and 4 animals. Following dissection, all fluids and tissues were placed in pre-tared tubes, weight collected, and then flash frozen on dry ice and placed in a freezer at −80° C. or lower until analyzed. Concentrations of test article in plasma in the ocular tissues (ng/g tissue) and fluids (ng/mL fluid) were determined utilizing a method previously developed by the CRO.

[2] = tested on: iPSC-derived RPE cells from AMD donors; test: Cell viability assay on nitrite-modified ECM (Real Time-Glo MT Cell Viability Assay); type: cell-based, human; conditions: 10, 100, 1000 nM; 24 hours; versus vehicle-treated cells; FIG. 8J, *p<0.05
Description: (§1) General. iPSC-derived RPE were generated from AMD patients (2 atrophic; 1 exudative) and patients with no history of AMD (n=3). To test the therapeutic efficacy of elamipretide and compound of Formula IIa, cell viability was analyzed on nitrite-modified extracellular matrix (ECM), a typical modification of aged Bruch's membrane, for 24 hrs. DNA microarrays were used to elucidate gene expression in AMD-derived RPE cultured on nitrite-modified ECM.
Preparation of RPE cell-derived ECM and nitrite-modified ECM RPE cell-derived ECM plates were prepared from ARPE-19 cells as described in Wang et al., Curr Eye Res. 30:691-702 (2005); Fields et al. (2017); and Moreira et al., Transl Vis Sci Technol. 4:10 (2015). ECM on 96-well plates were used to create two experimental plating surfaces (nontreated ECM and nitrite-modified ECM). Nitrite-modified ECM was prepared by adding 100 mM sodium nitrite to ECM followed by incubation at 37° C. for 7 days. Plates were then washed with DPBS and incubated with DPBS for 4 hours to completely remove the nitrite. […]
Cell viability was measured by Real Time-Glo MT Cell Viability Assay (Promega, Madison, WI, www.promega.com) according to the manufacturer's protocol. […] Luminescent signals were acquired using a BioTek FLx800 plate reader (BioTek).

[3] = tested on: iPSC-derived RPE cells from AMD donors; test: Microarray analysis of gene expression on in vitro Bruch's membrane model; type: cell-based, human; conditions: AMD-derived RPE on nitrite-modified ECM, 10, 100, 1000 nM, 24 hours
Description: as §1
Microarray analysis. iPSC-derived RPE cells from AMD donors (n=3; 2 atrophic with GA, 1 exudative) were treated with drug (elamipretide or compound of Formula IIa) as described below and cultured on an in vitro Bruch's membrane model for 24 hours.
• AMD donors only (n=3 individual donors) • Cells treated with elamipretide (also referred to as “309” in the figures) at 10 nM, 100 nM and 1000 nM • Cells treated with compound of Formula IIa (also referred to as “146c” in the figures) at 10 nM, 100 nM, 1000 nM
Microarray studies using Affymetrix GeneChip Human Clariom™ S Assay were performed as described in Gong et al. (2020).

[4] = tested on: iPSC-derived RPE cells from AMD donors; test: Measurement of mitochondrial function (Seahorse XF Cell Mito Stress Test); type: cell-based, human; conditions: 10, 100, 1000 nM, treatment began 24 hours prior to assay, FIGS. 8AA-8AL
Description: Measurement of mitochondrial function. Analysis of mitochondrial function was performed on live iPSC-derived RPE cells from AMD donors (n=3; 2 atrophic with GA, 1 exudative) treated with drug (elamipretide, compound of Formula IIa, or vehicle) as described below and iPSC-derived RPE cells from non-diseased controls (n=2) using the XFe96 Extracellular Flux Analyzer (Agilent Technologies, Santa Clara, California, www.agilent.com) and the Seahorse XF Cell Mito Stress Test (CMST) Kit (Agilent Technologies). iPSC-derived RPE cells were seeded onto a laminin-coated Seahorse XF plates and grown until confluent. Data were normalized by cell count. Drug treatments began 24 hours prior to assay. […]
Cells were stained with DAPI and counted by ImageJ software (National Institute of Health, Bethesda, Maryland, www.nih.gov). […] Oxygen consumption rate was detected under basal conditions followed by the sequential addition of oligomycin, carbonyl cyanide 4-(trifluoromethoxy) phenylhydrazone (FCCP), rotenone, and antimycin A. From these sequential additions, the following parameters can be derived: basal respiration, ATP production, maximal respiration, and spare respiratory capacity.

[5] = at 24 weeks of treatment; Pieramici & Ehlers, slide 15; cited from earlier work

## elamipretide [reference compound]
[1]; SC 1.5 mg/kg single dose or topical eye drops BID, 11 doses, FIGS. 1A, 1B
  concentration in plasma, elamipretide compared with compound of Formula IIa: roughly equivalent
[1]; regardless of mode of administration (topical or subcutaneous), FIGS. 2A, 2B
  concentration accumulated in the retina, compared with the other test article: much lower
[2]
  AMD-derived RPE cell viability on nitrite-modified ECM: significantly enhanced
[3]; FIG. 8S
  expression of complement regulatory genes including CFHR2: increase expression
[3]; FIGS. 8L-8P
  expression of complement component genes (C1R, C3, C4A) increased by nitration of ECM: reverse this trend
[3]; FIGS. 8W-8Z
  expression of mitochondrial-related genes, such as CYP24A1 and GLS: altered the expression
[4]
  mitochondrial function (ATP production; basal respiration; maximal respiration; spare respiratory capacity): efficacy in improving mitochondrial function
[5]
  Average BCVA and LLVA in NCGA and HRD patients: improved significantly
